Tests used:
[1] = biological target: T1, Muscarinic acetylcholine receptor M4 (Homo sapiens, UniProt P08173); assay type: cell membranes, CHO-K1, Membrane; settings: cho-k1
T1 sequence (P08173 whole entry): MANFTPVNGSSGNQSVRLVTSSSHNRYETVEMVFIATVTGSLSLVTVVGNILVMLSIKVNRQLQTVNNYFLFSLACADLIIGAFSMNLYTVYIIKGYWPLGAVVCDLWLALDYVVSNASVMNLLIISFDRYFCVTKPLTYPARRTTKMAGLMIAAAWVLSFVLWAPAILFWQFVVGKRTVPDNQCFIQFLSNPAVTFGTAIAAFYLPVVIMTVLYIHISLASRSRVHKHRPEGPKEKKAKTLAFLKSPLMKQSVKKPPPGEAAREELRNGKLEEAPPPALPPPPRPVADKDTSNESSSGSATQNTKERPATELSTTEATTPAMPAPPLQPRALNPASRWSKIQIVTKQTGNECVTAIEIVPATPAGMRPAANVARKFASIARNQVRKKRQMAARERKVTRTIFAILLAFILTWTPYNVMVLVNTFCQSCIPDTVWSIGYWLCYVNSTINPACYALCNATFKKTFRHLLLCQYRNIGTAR

[2] = biological target: T2, Muscarinic acetylcholine receptor M2 (Homo sapiens, UniProt P08172); assay type: cell membranes, CHO-K1, Membrane; settings: cho-k1
T2 sequence (P08172 whole entry): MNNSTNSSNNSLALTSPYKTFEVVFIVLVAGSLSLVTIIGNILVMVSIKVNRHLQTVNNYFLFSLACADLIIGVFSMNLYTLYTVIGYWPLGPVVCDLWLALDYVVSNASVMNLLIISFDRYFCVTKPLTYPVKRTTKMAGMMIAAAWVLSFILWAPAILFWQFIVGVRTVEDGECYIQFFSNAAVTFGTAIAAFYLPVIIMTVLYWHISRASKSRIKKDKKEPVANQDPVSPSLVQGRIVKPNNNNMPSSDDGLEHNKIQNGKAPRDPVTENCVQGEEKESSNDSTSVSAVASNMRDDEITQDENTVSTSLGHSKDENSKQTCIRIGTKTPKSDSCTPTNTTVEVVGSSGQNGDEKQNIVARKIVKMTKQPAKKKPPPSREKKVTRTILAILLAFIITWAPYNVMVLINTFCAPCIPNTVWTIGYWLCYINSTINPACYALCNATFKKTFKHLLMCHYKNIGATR

[3] = biological target: Histamine H2 receptor (Homo sapiens, UniProt P25021); assay type: cell membranes, CHO-K1, Membrane; settings: cho-k1
Chain of Histamine H2 receptor (P25021 whole entry): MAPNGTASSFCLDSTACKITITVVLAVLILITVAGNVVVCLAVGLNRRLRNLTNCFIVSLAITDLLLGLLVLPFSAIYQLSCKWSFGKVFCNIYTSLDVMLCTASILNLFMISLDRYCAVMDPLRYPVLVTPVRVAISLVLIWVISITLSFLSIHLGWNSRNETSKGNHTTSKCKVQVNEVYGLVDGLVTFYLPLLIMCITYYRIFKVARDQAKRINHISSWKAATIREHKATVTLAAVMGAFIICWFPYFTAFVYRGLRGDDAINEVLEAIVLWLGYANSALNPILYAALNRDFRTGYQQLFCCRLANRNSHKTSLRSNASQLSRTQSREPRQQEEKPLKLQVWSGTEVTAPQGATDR

[4] = biological target: T3, Receptor-type tyrosine-protein phosphatase C (Homo sapiens, UniProt P08575); parameters: species or system Escherichia coli;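 also: inhibition of CD45 enzyme activity measured using DiFMUP as substrate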
T3 sequence (P08575 whole entry): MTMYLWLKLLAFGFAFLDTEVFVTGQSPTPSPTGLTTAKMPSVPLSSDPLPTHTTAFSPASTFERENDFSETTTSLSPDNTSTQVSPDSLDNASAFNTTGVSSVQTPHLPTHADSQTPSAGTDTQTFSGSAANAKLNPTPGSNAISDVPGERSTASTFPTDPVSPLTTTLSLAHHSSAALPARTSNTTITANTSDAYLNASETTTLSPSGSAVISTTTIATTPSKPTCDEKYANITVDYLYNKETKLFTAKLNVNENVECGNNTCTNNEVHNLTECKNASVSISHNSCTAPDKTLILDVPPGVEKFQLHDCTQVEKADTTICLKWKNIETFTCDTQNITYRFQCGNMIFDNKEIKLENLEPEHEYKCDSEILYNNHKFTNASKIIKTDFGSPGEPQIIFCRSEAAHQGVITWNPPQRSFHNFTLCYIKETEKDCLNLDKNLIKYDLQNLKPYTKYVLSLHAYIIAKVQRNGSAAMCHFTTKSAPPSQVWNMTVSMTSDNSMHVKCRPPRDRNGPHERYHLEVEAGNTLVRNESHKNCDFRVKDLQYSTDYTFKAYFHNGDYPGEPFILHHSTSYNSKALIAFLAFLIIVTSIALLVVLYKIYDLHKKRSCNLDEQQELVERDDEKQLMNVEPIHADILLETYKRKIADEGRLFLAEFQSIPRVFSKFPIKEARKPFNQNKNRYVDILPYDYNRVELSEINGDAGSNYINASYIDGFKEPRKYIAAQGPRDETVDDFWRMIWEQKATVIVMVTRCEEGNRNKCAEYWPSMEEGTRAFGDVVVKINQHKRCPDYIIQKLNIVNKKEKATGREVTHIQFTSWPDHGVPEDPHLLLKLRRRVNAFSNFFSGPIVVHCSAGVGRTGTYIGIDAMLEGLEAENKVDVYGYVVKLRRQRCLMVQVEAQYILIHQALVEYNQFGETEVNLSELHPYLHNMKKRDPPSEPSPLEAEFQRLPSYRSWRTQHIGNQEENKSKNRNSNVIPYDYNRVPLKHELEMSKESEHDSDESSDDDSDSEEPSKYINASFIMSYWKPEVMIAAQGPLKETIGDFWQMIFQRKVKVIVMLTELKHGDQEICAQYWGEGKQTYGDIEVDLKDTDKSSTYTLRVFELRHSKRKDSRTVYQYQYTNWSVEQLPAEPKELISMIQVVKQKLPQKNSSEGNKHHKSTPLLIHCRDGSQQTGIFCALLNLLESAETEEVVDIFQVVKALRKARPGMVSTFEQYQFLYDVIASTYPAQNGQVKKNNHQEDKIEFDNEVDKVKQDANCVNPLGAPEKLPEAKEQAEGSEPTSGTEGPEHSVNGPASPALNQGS

[5] = biological target: Cytochrome P450 3A4 (Homo sapiens, UniProt P08684); settings: bti-tn-5b1-4
Chain of Cytochrome P450 3A4 (P08684 whole entry): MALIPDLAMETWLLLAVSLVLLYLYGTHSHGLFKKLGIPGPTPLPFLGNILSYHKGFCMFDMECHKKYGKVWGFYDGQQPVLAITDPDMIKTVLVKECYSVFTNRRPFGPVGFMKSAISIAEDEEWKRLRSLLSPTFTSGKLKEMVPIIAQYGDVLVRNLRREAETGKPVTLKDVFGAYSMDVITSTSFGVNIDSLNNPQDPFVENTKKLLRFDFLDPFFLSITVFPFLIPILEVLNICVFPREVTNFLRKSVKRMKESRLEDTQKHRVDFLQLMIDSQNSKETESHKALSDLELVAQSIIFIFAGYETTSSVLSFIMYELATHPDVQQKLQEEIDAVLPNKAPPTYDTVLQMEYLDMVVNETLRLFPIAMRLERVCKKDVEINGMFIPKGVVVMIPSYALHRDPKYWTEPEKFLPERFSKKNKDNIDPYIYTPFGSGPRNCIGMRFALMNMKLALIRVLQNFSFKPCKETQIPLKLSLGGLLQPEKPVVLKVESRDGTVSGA

[6] = biological target: T4, C-X-C chemokine receptor type 1 (Homo sapiens, UniProt P25024)
T4 sequence (P25024 whole entry): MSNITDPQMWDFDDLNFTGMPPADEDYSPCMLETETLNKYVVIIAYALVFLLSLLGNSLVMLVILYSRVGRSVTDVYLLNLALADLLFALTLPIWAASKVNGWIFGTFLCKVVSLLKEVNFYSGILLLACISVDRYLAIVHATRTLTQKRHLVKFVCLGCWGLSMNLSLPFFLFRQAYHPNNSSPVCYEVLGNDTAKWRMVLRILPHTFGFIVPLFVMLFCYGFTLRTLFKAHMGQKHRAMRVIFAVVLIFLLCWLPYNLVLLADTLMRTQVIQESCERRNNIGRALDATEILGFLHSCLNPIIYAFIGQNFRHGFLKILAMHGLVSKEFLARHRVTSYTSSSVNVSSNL
Also: in other assays of this panel Not Active means under 50% inhibition at 10 µM.

CC[C@]1(O)C[C@@H]2CN(CCc3c([nH]c4ccccc34)[C@@](C(=O)OC)(c3cc4c(cc3OC)N(C)[C@H]3[C@@](O)(C(=O)OC)[C@H](OC(C)=O)[C@]5(CC)C=CCN6CC[C@]43[C@@H]65)C2)C1 [VINBLASTINE]
Not Active: IC50 [1] | IC50 [2] | IC50 [3] | IC50 [4] | IC50 [5] | Ki [5] | IC50 [6]

COc1cc(NS(=O)(=O)c2ccc(N)cc2)nc(OC)n1 [SULFADIMETHOXINE]
Not Active: IC50 [1] | IC50 [2] | IC50 [3] | IC50 [4] | IC50 [5] | Ki [5] | IC50 [6]

C[C@]1(Cn2ccnn2)[C@H](C(=O)O)N2C(=O)C[C@H]2S1(=O)=O [TAZOBACTAM]
Not Active: IC50 [1] | IC50 [2] | IC50 [3] | IC50 [4] | IC50 [5] | Ki [5] | IC50 [6]

[Cl-].[Cl-].[Zn+2] [ZINC CHLORIDE]
Not Active: IC50 [1] | IC50 [2] | IC50 [3] | IC50 [4] | IC50 [5] | Ki [5] | IC50 [6]

O=C(c1ccc(OCCN2CCCCC2)cc1)c1c(-c2ccc(O)cc2)sc2cc(O)ccc12 [RALOXIFENE]
Not Active: IC50 [1] | IC50 [2] | IC50 [3] | IC50 [4] | IC50 [5] | Ki [5] | IC50 [6]

CC/C(=C(/CC)c1ccc(O)cc1)c1ccc(O)cc1 [DIETHYLSTILBESTROL]
Not Active: IC50 [1] | IC50 [2] | IC50 [3] | IC50 [4] | IC50 [5] | Ki [5] | IC50 [6]

CN1C(C(=O)Nc2ccccn2)=C(O)c2sccc2S1(=O)=O [TENOXICAM]
Not Active: IC50 [1] | IC50 [2] | IC50 [3] | IC50 [4] | IC50 [5] | Ki [5] | IC50 [6]

CC(=O)N[C@@H]1[C@H](Oc2c3cc4cc2Oc2ccc(cc2Cl)[C@@H](O[C@@H]2O[C@@H](CO)[C@@H](O)[C@H](O)[C@@H]2NC(C)=O)[C@@H]2NC(=O)[C@H](NC(=O)[C@@H]4NC(=O)[C@H]4NC(=O)[C@@H](Cc5ccc(c(Cl)c5)O3)NC(=O)[C@H](N)c3ccc(O)c(c3)Oc3cc(O)cc4c3)c3ccc(O)c(c3)-c3c(O[C@H]4O[C@H](CO)[C@@H](O)[C@@H](O)[C@@H]4O)cc(O)cc3[C@@H](C(=O)O)NC2=O)O[C@@H](CO)[C@@H](O)[C@@H]1O
Not Active: IC50 [1] | IC50 [2] | IC50 [3] | IC50 [4] | IC50 [5] | Ki [5] | IC50 [6]

COCCCOc1ccnc(C[S+]([O-])c2nc3ccccc3[nH]2)c1C (stereo not given) [RABEPRAZOLE]
Not Active: IC50 [1] | IC50 [2] | IC50 [3] | IC50 [4] | IC50 [5] | Ki [5] | IC50 [6]

CO[C@H]1/C=C/O[C@@]2(C)Oc3c(C)c(O)c4c(c3C2=O)C2=NC3(CCN(CC(C)C)CC3)NC2=C(NC(=O)/C(C)=C\C=C\[C@H](C)[C@H](O)[C@@H](C)[C@@H](O)[C@@H](C)[C@H](OC(C)=O)[C@@H]1C)C4=O [RIFABUTIN]
Not Active: IC50 [1] | IC50 [2] | IC50 [3] | IC50 [4] | IC50 [5] | Ki [5] | IC50 [6]

CNC(=C[N+](=O)[O-])NCCSCc1ccc(CN(C)C)o1 [RANITIDINE]
Not Active: IC50 [1] | IC50 [2] | IC50 [3] | IC50 [4] | IC50 [5] | Ki [5] | IC50 [6]

CC1=C(CC(=O)O)c2cc(F)ccc2/C1=C\c1ccc([S+](C)[O-])cc1 (stereo not given)
Not Active: IC50 [1] | IC50 [2] | IC50 [3] | IC50 [4] | IC50 [5] | Ki [5] | IC50 [6]

CC(=O)CC(c1ccccc1)c1c(O)c2ccccc2oc1=O (stereo not given) [WARFARIN]
Not Active: IC50 [1] | IC50 [2] | IC50 [3] | IC50 [4] | IC50 [5] | Ki [5] | IC50 [6]

CC(C)(C)c1ccc(C(O)CCCN2CCC(C(O)(c3ccccc3)c3ccccc3)CC2)cc1 (stereo not given) [TERFENADINE]
Not Active: IC50 [1] | IC50 [2] | IC50 [3] | IC50 [4] | IC50 [5] | Ki [5] | IC50 [6]

C[C@@H](N)[C@H]1CC[C@H](C(=O)Nc2ccncc2)CC1 [Y-27632]
Not Active: IC50 [1] | IC50 [2] | IC50 [3] | IC50 [4] | IC50 [5] | Ki [5] | IC50 [6]
